Data from BindingDB's records for patent US12419873 (Zhuhai United Laboratories Co., 2025).

How the values were obtained:
[1] = target: Non-receptor tyrosine-protein kinase TYK2 (Homo sapiens, UniProt P29597); experiment: TYK2 (h) Enzyme Reaction
[2] = target: Tyrosine-protein kinase JAK1 (Homo sapiens, UniProt P23458); experiment: JAK1 (h) Enzyme Reaction
[3] = target: Tyrosine-protein kinase JAK2 (Homo sapiens, UniProt O60674); experiment: JAK2 (h) Enzyme Reaction
[4] = target: T1, Tyrosine-protein kinase JAK3 (Homo sapiens, UniProt P52333); experiment: JAK3 (h) Enzyme Reaction
T1 sequence (P52333 whole entry): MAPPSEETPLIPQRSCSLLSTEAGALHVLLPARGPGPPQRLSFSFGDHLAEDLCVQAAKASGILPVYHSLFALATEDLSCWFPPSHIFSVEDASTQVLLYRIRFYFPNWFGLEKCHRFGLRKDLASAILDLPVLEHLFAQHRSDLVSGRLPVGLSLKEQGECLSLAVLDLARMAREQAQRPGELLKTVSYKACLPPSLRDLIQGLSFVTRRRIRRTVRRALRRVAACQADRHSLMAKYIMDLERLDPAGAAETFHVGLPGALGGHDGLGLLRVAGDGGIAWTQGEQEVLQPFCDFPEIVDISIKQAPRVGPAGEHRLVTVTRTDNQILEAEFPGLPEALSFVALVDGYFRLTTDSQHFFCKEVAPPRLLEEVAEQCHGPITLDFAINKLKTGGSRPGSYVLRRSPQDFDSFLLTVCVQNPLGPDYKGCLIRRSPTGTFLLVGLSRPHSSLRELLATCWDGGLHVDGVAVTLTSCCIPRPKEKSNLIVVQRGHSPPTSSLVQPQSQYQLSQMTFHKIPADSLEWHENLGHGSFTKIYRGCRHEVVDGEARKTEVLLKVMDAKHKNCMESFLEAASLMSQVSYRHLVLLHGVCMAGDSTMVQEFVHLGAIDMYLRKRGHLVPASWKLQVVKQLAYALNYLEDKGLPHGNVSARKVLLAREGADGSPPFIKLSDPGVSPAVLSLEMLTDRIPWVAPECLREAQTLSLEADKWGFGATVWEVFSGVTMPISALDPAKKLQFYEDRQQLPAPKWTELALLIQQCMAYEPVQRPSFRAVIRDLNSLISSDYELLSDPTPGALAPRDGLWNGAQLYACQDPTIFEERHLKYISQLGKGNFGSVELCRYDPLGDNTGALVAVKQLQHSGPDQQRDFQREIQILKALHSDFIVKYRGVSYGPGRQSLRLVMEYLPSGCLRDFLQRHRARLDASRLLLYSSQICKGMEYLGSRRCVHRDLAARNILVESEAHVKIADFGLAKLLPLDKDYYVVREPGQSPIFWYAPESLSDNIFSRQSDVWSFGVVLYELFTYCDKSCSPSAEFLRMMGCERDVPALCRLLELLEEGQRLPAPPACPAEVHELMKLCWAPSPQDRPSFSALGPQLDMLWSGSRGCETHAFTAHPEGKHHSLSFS

Sequence of Tyrosine-protein kinase JAK1 (P23458 whole entry): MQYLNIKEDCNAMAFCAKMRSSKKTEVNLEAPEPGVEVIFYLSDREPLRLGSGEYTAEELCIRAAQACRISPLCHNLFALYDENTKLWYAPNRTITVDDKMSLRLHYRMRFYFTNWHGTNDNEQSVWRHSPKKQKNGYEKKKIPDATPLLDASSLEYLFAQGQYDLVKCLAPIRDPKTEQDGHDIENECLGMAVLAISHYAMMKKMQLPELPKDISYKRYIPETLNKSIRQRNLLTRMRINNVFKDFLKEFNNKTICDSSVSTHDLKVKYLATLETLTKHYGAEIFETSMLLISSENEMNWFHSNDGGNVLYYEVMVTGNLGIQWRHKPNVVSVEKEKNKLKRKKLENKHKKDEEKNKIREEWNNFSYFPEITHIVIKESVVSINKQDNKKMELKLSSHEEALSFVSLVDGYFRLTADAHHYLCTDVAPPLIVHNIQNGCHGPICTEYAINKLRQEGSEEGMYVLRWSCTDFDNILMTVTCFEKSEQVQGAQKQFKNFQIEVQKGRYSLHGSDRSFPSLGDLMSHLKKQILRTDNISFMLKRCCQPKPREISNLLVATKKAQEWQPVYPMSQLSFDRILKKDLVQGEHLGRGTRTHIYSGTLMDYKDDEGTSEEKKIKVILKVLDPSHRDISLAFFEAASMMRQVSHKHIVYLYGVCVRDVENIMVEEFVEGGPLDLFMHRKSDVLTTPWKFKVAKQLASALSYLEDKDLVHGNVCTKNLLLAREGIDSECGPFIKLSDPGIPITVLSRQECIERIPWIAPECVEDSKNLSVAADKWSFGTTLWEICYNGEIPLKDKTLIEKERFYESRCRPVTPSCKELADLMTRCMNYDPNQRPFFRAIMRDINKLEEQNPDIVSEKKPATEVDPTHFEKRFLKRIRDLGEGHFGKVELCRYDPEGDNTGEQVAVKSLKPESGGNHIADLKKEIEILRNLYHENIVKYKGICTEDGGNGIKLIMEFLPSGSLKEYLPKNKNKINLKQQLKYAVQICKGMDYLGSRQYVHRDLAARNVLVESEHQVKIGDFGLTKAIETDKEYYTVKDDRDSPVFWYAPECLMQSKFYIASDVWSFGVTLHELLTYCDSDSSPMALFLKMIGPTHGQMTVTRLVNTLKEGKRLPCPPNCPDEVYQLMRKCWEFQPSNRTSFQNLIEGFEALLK
Sequence of Tyrosine-protein kinase JAK2 (O60674 whole entry): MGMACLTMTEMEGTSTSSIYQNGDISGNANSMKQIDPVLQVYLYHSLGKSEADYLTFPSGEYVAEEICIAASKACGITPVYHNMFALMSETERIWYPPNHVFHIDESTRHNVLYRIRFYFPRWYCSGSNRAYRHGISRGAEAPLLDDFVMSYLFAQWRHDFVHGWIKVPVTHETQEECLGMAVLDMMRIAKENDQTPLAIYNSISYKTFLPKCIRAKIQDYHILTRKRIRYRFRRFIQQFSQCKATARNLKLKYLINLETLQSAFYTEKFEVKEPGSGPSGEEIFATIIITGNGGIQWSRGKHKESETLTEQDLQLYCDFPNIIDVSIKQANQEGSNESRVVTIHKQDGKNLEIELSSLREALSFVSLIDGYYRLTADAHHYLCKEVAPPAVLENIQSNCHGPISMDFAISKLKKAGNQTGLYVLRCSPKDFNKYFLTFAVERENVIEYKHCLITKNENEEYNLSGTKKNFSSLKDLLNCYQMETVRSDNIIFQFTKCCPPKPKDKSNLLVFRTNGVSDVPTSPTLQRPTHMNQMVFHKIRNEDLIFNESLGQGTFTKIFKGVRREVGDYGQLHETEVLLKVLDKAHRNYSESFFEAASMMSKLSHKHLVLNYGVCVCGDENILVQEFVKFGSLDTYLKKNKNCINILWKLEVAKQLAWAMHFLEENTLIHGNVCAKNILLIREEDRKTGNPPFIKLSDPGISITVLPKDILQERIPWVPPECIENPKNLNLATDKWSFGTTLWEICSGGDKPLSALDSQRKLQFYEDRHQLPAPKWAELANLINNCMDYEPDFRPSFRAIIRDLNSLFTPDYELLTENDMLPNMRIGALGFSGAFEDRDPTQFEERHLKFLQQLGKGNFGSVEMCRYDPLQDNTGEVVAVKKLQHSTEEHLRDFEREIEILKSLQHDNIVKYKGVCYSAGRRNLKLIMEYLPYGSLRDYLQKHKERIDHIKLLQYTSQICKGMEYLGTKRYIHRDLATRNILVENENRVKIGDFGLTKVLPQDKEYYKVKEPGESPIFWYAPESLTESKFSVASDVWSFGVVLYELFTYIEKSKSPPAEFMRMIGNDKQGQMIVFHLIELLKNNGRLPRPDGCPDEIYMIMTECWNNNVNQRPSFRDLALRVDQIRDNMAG
Sequence of Non-receptor tyrosine-protein kinase TYK2 (P29597 whole entry): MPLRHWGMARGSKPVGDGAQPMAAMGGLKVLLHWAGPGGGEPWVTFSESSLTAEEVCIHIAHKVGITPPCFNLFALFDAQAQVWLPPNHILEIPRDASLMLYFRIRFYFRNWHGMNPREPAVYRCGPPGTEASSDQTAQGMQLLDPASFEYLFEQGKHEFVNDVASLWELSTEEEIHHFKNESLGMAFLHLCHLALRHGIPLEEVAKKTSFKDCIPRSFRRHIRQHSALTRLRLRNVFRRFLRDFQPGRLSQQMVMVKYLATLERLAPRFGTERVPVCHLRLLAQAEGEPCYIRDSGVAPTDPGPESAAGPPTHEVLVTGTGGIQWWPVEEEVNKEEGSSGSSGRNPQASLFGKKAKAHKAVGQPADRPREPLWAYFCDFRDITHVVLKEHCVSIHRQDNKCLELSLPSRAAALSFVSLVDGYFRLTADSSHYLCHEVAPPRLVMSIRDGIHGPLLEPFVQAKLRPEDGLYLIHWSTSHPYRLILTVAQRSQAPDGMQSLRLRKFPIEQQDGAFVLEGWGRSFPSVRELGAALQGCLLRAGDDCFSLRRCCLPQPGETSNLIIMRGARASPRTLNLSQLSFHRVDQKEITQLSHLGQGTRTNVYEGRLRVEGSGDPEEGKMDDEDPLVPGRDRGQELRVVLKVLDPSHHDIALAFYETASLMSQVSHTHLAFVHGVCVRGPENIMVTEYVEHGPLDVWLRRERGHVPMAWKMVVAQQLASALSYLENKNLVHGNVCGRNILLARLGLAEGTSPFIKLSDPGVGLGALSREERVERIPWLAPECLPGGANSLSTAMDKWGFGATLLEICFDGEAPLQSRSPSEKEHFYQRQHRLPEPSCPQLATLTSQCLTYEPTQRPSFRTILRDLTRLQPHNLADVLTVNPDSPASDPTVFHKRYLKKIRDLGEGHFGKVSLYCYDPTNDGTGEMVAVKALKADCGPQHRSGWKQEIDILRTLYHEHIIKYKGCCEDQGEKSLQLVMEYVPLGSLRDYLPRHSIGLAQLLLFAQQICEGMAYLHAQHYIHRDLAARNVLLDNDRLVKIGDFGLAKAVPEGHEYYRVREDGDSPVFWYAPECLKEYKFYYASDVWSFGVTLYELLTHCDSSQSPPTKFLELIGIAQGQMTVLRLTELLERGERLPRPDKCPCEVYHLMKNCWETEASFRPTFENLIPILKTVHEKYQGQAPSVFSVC

IC50 [1]: 0.175 µM
IC50 [2]: 0.224 µM
IC50 [3]: 0.624 µM
IC50 [4]: > 10 µM
Structure (SMILES): N#CCC(=O)N1CC2(CCC(c3cccc4nc(NC(=O)[C@@H]5CC5(F)F)nn34)CC2)C1 [US12419873, Compound 9-5]
